The results in this text go back to patent publication US20240166660A1, “KRAS G12C INHIBITORS” (BeiGene Switzerland GmbH, priority 2021, published 2024).

What is called IC50 is the concentration that gives 50% inhibition.

This experiment has as its target KRAS (aa 1-169) G12C, C51S, C80L, C118S (Homo sapiens (Human), UniProt P01116, C118S/C51S/C80L/G12C). The experiment in a line: Biochemical functional assay: SOS1-mediated nucleotide exchange of GDP-loaded KRAS G12C, binding to GST-cRaf RBD, FRET readout. To be noted: 3 hrs pre-incubation with compound at 24° C., SOS1, GTPyS, inhibition of nucleotide exchange. In a few lines:
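GDP-loaded His-tagged KRAS construct preincubated with compound 3 h at 24° C in 25 mM HEPES pH7.5, 10 mM MgCl2, 0.01% Triton X-100; SOS1 (aa 564-1049), GTPγS and GST-cRaf RBD added for 3 h, then anti-His Tb cryptate/anti-GST XL665 for 3 h. HTRF 665/620 ratio; IC50 by four-parameter logistic fit.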

Sequence of KRAS (aa 1-169) G12C, C51S, C80L, C118S (P01116 other isoform, or with tags, fused parts or gaps G12C/C51S/C80L/C118S): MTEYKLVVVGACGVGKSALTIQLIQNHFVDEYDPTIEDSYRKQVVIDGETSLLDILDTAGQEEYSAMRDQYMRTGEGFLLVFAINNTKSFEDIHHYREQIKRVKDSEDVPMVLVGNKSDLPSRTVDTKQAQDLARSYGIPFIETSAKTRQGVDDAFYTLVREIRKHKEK

Consider `C=C(F)C(=O)N1CCN(c2nc(OC[C@@H]3CCCN3C)nc3cc(-c4c(F)c(Cl)cc5[nH]ncc45)c4c(c23)OCCC4)C[C@@H]1CC#N` [Compound B42, 2-((2S)-4-(5-(6-chloro-5-fluoro-1H-indazol-4-yl)-8-(((S)-1-methylpyrrolidin-2-yl)methoxy)-3,4-dihydro-2H-pyrano[2,3-f]quinazolin-10-yl)-1-(2-fluoroacryloyl)piperazin-2-yl)acetonitrile], for which the IC50 came to 43 nM.

Turning to `C=C(F)C(=O)N1CCN(c2nc(OC[C@@H]3CCCN3C)nc3cc(-c4cccc5cccc(C)c45)c4c(c23)OCCC4)C[C@@H]1CC#N` [Compound B43, 2-((S)-1-(2-fluoroacryloyl)-4-(5-(8-methylnaphthalen-1-yl)-8-(((S)-1-methylpyrrolidin-2-yl)methoxy)-3,4-dihydro-2H-pyrano[2,3-f]quinazolin-10-yl)piperazin-2-yl)acetonitrile], the IC50 is 13 nM.

Turning to `C=C(F)C(=O)N1CCN(c2nc(OC[C@@H]3CCCN3C)nc3cc(-c4ccccc4F)c4ccoc4c23)CC1` [Compound B44, (S)-2-fluoro-1-(4-(4-(2-fluorophenyl)-7-((1-methylpyrrolidin-2-yl)methoxy)furo[2,3-f]quinazolin-9-yl)piperazin-1-yl)prop-2-en-1-one], the IC50 was determined as 6350 nM.

As for `C=CC(=O)N1CCN(c2nc(OC[C@@H]3CCCN3C)nc3cc(-c4ccccc4F)c4ccoc4c23)CC1` [Compound B45, (S)-1-(4-(4-(2-fluorophenyl)-7-((1-methylpyrrolidin-2-yl)methoxy)furo[2,3-f]quinazolin-9-yl)piperazin-1-yl)prop-2-en-1-one], the concentration for half-maximal inhibition (IC50) stood at 2020 nM.

Turning to `C=CC(=O)N1CCN(c2nc(OC[C@@H]3CCCN3C)nc3cc(-c4c(O)cccc4F)c4ccoc4c23)CC1` [Compound B46, 1-(4-(4-(2-fluoro-6-hydroxyphenyl)-7-(((S)-1-methylpyrrolidin-2-yl)methoxy)furo[2,3-f]quinazolin-9-yl)piperazin-1-yl)prop-2-en-1-one], the concentration for half-maximal inhibition (IC50) is 621 nM.

For `C=CC(=O)N1CCN(c2nc(OC3CCCC3N(C)C)nc3cc(-c4cccc5cccc(Cl)c45)c4c(c23)OCCC4)C[C@@H]1CC#N` (stereo partly drawn) [Compound B48, 2-((2S)-1-acryloyl-4-(5-(8-chloronaphthalen-1-yl)-8-((2-(dimethylamino)cyclopentyl)oxy)-3,4-dihydro-2H-pyrano[2,3-f]quinazolin-10-yl)piperazin-2-yl)acetonitrile], the IC50 is 14 nM.

`C=CC(=O)N1CCN(c2nc(OC[C@@H]3CCCN3C)nc3cc(-c4cccc5cccc(Cl)c45)c4ccoc4c23)[C@@H](C)C1` [Compound B49, 1-((S)-4-(4-(8-chloronaphthalen-1-yl)-7-(((S)-1-methylpyrrolidin-2-yl)methoxy)furo[2,3-f]quinazolin-9-yl)-3-methylpiperazin-1-yl)prop-2-en-1-one]: the half-inhibitory concentration (IC50) amounted to 128 nM.

Regarding `C=C(F)C(=O)N1CCN(c2nc(OC3CCCC3N(C)C)nc3cc(-c4cccc5cccc(Cl)c45)c4c(c23)OCCC4)C[C@@H]1CC#N` (stereo partly drawn) [Compound B50, 2-((2S)-4-(5-(8-chloronaphthalen-1-yl)-8-((2-(dimethylamino)cyclopentyl)oxy)-3,4-dihydro-2H-pyrano[2,3-f]quinazolin-10-yl)-1-(2-fluoroacryloyl)piperazin-2-yl)acetonitrile], the 50% inhibitory concentration (IC50) turned out to be 289 nM.

Turning to `C=CC(=O)N1CC2(CCN(c3nc(OC[C@@H]4CCCN4C)nc4cc(-c5cccc6cccc(Cl)c56)c5ccoc5c34)CC2)C1` [Compound B51, (S)-1-(7-(4-(8-chloronaphthalen-1-yl)-7-((1-methylpyrrolidin-2-yl)methoxy)furo[2,3-f]quinazolin-9-yl)-2,7-diazaspiro[3.5]nonan-2-yl)prop-2-en-1-one], the IC50 was found to be 1010 nM.

On to `C=CC(=O)N1C[C@H](C)N(c2nc(OC[C@@H]3CCCN3C)nc3cc(-c4cccc5cccc(Cl)c45)c4ccoc4c23)C[C@H]1C` [Compound B52, 1-((2R,5S)-4-(4-(8-chloronaphthalen-1-yl)-7-(((S)-1-methylpyrrolidin-2-yl)methoxy)furo[2,3-f]quinazolin-9-yl)-2,5-dimethylpiperazin-1-yl)prop-2-en-1-one], for which the IC50 was determined as 654 nM.

Take `C=C(F)C(=O)N1CCN(c2nc(OC[C@@H]3C[C@@H](F)CN3C)nc3cc(-c4cccc5cccc(Cl)c45)c4c(c23)OCCC4)C[C@@H]1CC#N` [Compound B53, 2-((S)-4-(5-(8-chloronaphthalen-1-yl)-8-(((2S,4R)-4-fluoro-1-methylpyrrolidin-2-yl)methoxy)-3,4-dihydro-2H-pyrano[2,3-f]quinazolin-10-yl)-1-(2-fluoroacryloyl)piperazin-2-yl)acetonitrile]: the IC50 is 28 nM.

As to `C=C(F)C(=O)N1CCN(c2nc(OC[C@@H]3C[C@H](F)CN3C)nc3cc(-c4cccc5cccc(Cl)c45)c4c(c23)OCCC4)C[C@@H]1CC#N` [Compound B54, 2-((S)-4-(5-(8-chloronaphthalen-1-yl)-8-(((2S,4S)-4-fluoro-1-methylpyrrolidin-2-yl)methoxy)-3,4-dihydro-2H-pyrano[2,3-f]quinazolin-10-yl)-1-(2-fluoroacryloyl)piperazin-2-yl)acetonitrile], the IC50 is 40 nM.

Turning to `C=C(F)C(=O)N1CCN(c2nc(O[C@@H]3CN(C)C[C@H]3OC)nc3cc(-c4cccc5cccc(Cl)c45)c4c(c23)OCCC4)C[C@@H]1CC#N` [Compound B55, 2-((S)-4-(5-(8-chloronaphthalen-1-yl)-8-(((3R,4R)-4-methoxy-1-methylpyrrolidin-3-yl)oxy)-3,4-dihydro-2H-pyrano[2,3-f]quinazolin-10-yl)-1-(2-fluoroacryloyl)piperazin-2-yl)acetonitrile], the IC50 is 134 nM.

On to `C=CC(=O)N1CCN(c2nc(OC[C@@H]3CCCN3C)nc3cc(-c4c(C)cccc4C)c4ccoc4c23)CC1` [Compound B56, (S)-1-(4-(4-(2,6-dimethylphenyl)-7-((1-methylpyrrolidin-2-yl)methoxy)furo[2,3-f]quinazolin-9-yl)piperazin-1-yl)prop-2-en-1-one], for which the IC50 was determined as 632 nM.

As to `C=CC(=O)N1CCN(c2nc(OC[C@@H]3CCCN3C)nc3cc(-c4c(F)cccc4Cl)c4ccoc4c23)CC1` [Compound B57, 1-(4-(4-(2-chloro-6-fluorophenyl)-7-(((S)-1-methylpyrrolidin-2-yl)methoxy)furo[2,3-f]quinazolin-9-yl)piperazin-1-yl)prop-2-en-1-one], the IC50 amounted to 1020 nM.

`C=CC(=O)N1CCN(c2nc(OC[C@@H]3CCCN3C)nc3cc(-c4ccccc4C4CC4)c4ccoc4c23)CC1` [Compound B58, (S)-1-(4-(4-(2-cyclopropylphenyl)-7-((1-methylpyrrolidin-2-yl)methoxy)furo[2,3-f]quinazolin-9-yl)piperazin-1-yl)prop-2-en-1-one]: the IC50 came out at 958 nM.

With `C=CC(=O)N1CCN(c2nc(OC[C@@H]3CCCN3C)nc3cc(-c4c(Cl)cccc4Cl)c4ccoc4c23)CC1` [Compound B59, (S)-1-(4-(4-(2,6-dichlorophenyl)-7-((1-methylpyrrolidin-2-yl)methoxy)furo[2,3-f]quinazolin-9-yl)piperazin-1-yl)prop-2-en-1-one], the IC50 is 745 nM.
